Results published in patent US20150239831A1, “INHIBITORS OF CENTRAL NERVOUS SYSTEM VASOACTIVE INHIBITORY PEPTIDE RECEPTOR 2” (The Trustees Of Columbia University In The City Of New York, priority 2012, published 2015).

How the values were obtained:
Type in all cases: cell-based
Set-up in all cases: expressed in transfected cells; host or cells: HEK293 cells transfected with VIPR2 in pCDNA3.1 (as described)
[1] = target: T1, VIPR2 (Homo sapiens, UniProt P41587); assay: Inhibition of VIP-induced β-arrestin recruitment (% Activity Arrestin)
T1 sequence (P41587 24-438): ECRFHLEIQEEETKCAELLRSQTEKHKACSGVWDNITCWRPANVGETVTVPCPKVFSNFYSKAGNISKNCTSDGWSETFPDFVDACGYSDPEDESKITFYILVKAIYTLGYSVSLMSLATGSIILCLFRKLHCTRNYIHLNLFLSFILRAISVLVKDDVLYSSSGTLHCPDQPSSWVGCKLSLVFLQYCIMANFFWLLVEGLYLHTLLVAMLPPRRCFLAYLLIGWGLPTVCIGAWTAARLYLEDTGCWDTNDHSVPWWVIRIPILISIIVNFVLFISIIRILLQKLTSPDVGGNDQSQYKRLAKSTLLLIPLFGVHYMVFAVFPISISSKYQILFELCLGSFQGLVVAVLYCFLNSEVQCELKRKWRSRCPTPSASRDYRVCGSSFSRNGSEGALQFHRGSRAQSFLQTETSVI
Summary of the method: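 HEK293 cells stably expressing β-arrestin2–β-gal EA, transiently transfected with ProLink-tagged hVIPR2, plated overnight; inhibitor added for 2 h at 37 °C, 5% CO2. Receptor–arrestin complementation read by chemiluminescence after 5 min–1 h at room temperature; inhibition of VIP-induced recruitment reported as % activity.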

[2] = target: T1, VIPR2; assay: Inhibition of VIP-induced cAMP elevation (% Activity cAMP)
Summary of the method: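 HEK293 cells stably transfected with human VIPR2 were incubated with inhibitor and VIP for 30 min, then cAMP was detected by HTRF after at least 1 h at room temperature. The 665/620 nm ratio ×10,000 was calculated.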

[3] = target: T1, VIPR2; assay: % Activity: inhibition of VIP-induced cAMP elevation and β-arrestin recruitment (Table 2)
Summary of the method: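 cAMP: HEK293 stably expressing hVIPR2, inhibitor plus VIP 30 min, cAMP by HTRF (665/620 nm ratio ×10,000). β-arrestin: HEK293 with β-arrestin2-β-gal-EA, transiently transfected with VIPR2-ProLink; inhibitor 2 h at 37° C, enzyme complementation read by luminescence.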

Compound | inhibition at 0.5 µM ([1]; Batch 2) [%] | inhibition at 1 µM ([1]; Batch 2) [%] | inhibition at 5 µM ([1]; Batch 2) [%] | inhibition at 0.5 µM ([2]; Batch 2) [%] | inhibition at 1 µM ([2]; Batch 2) [%] | inhibition at 5 µM ([2]; Batch 2) [%] | % Activity [3] [%] | inhibition at 0.5 µM ([1]; Batch 3) [%] | inhibition at 1 µM ([1]; Batch 3) [%] | inhibition at 5 µM ([1]; Batch 3) [%] | inhibition at 0.5 µM ([2]; Batch 3) [%] | inhibition at 1 µM ([2]; Batch 3) [%] | inhibition at 5 µM ([2]; Batch 3) [%]
O=C([C@H](Cc1ccccc1)C[C@H](O)CNS(=O)(=O)c1ccc([N+](=O)[O-])cc1)N1CCCCC1 [Compound B18A] | -10.2 | -11.5 | -2.8 | -4.8 | -4.8 | 0.5 | −1.15 | – | – | – | – | – | –
O=C([C@@H](Cc1ccccc1)C[C@H](O)CNS(=O)(=O)c1ccc([N+](=O)[O-])cc1)N1CCCCC1 [Compound B18B] | 0.5 | 9.2 | 14.9 | 14.2 | 14.2 | 9.4 | 12.15 | – | – | – | – | – | –
O=C([C@H](Cc1ccccc1)C[C@H](O)CNS(=O)(=O)c1ccc([N+](=O)[O-])cc1)N1CCC(CO)CC1 [Compound B19] | -8.4 | -17.8 | -4.5 | 2.1 | 4.4 | 6.2 | 0.85 | – | – | – | – | – | –
CNC(=O)[C@H](Cc1ccccc1)C[C@H](O)CNS(=O)(=O)c1ccc([N+](=O)[O-])cc1 [Compound B20] | 6.9 | 4 | 3.2 | 7 | 8.3 | 9.3 | 6.25 | – | – | – | – | – | –
C#CCNC(=O)[C@H](Cc1ccccc1)C[C@H](O)CNS(=O)(=O)c1ccc([N+](=O)[O-])cc1 [Compound B21A] | 9.4 | 7.2 | -0.2 | 5.4 | 7.8 | 7.3 | 3.55 | – | – | – | – | – | –
C#CCNC(=O)[C@@H](Cc1ccccc1)C[C@H](O)CNS(=O)(=O)c1ccc([N+](=O)[O-])cc1 [Compound B21B] | 3.3 | 3.4 | 7 | 3.1 | 7.3 | 13.5 | 10.25 | – | – | – | – | – | –
Nc1ccc(S(=O)(=O)NC[C@@H](O)C[C@@H](Cc2ccccc2)C(=O)N[C@H]2c3ccccc3C[C@H]2O)cc1 [Compound X081] | – | – | – | – | – | – | 20 | -5.6 | -5.5 | 6.7 | 8.4 | 18.6 | 33.3
CNc1ccc(S(=O)(=O)NC[C@@H](O)C[C@@H](Cc2ccccc2)C(=O)N[C@H]2c3ccccc3C[C@H]2O)cc1 [Compound X082] | – | – | – | – | – | – | −1.5 | -0.8 | 1.1 | 4.3 | -0.9 | 2 | -7.3
CN(C)c1ccc(S(=O)(=O)NC[C@@H](O)C[C@@H](Cc2ccccc2)C(=O)N[C@H]2c3ccccc3C[C@H]2O)cc1 [Compound X083] | – | – | – | – | – | – | 2.65 | 4.2 | -1.6 | 8.7 | 9.4 | -1.4 | -3.4
CCCNc1ccc(S(=O)(=O)NC[C@@H](O)C[C@@H](Cc2ccccc2)C(=O)N[C@H]2c3ccccc3C[C@H]2O)cc1 [Compound X084] | – | – | – | – | – | – | 15.6 | 4.1 | 2.6 | 6.7 | -2.9 | 11.3 | 24.5
CC(C)Nc1ccc(S(=O)(=O)NC[C@@H](O)C[C@@H](Cc2ccccc2)C(=O)N[C@H]2c3ccccc3C[C@H]2O)cc1 [Compound X085] | – | – | – | – | – | – | 16.2 | 8.1 | -2 | 11.8 | 17.2 | 18.2 | 20.6
CC(C)CNc1ccc(S(=O)(=O)NC[C@@H](O)C[C@@H](Cc2ccccc2)C(=O)N[C@H]2c3ccccc3C[C@H]2O)cc1 [Compound X086] | – | – | – | – | – | – | 19.65 | 10.2 | 5.2 | 11.9 | 21.6 | 16.7 | 27.4
CCCCCNc1ccc(S(=O)(=O)NC[C@@H](O)C[C@@H](Cc2ccccc2)C(=O)N[C@H]2c3ccccc3C[C@H]2O)cc1 [Compound X087] | – | – | – | – | – | – | 15.2 | 2.8 | 2.3 | 11.3 | 10.8 | 19.1 | 19.1
CC(=O)Nc1ccc(S(=O)(=O)NC[C@@H](O)C[C@@H](Cc2ccccc2)C(=O)N[C@H]2c3ccccc3C[C@H]2O)cc1 [Compound X088] | – | – | – | – | – | – | 11.65 | -1.2 | 4.9 | 4.2 | 15.2 | 19.1 | 19.1
CC(=O)Nc1ccc(S(=O)(=O)NC[C@H](C[C@@H](Cc2ccccc2)C(=O)N[C@H]2c3ccccc3C[C@H]2O)OC(C)=O)cc1 [Compound X089] | – | – | – | – | – | – | 6.75 | -9.8 | -1.8 | 10.5 | -4.3 | 32.3 | 3
CC(=O)Nc1ccc(S(=O)(=O)NC[C@H](C[C@@H](Cc2ccccc2)C(=O)N[C@H]2c3ccccc3C[C@H]2OC(C)=O)OC(C)=O)cc1 [Compound X090] | – | – | – | – | – | – | 1.95 | 0.5 | 0.2 | 9.7 | -8.7 | -8.7 | -5.8
CCC(=O)Nc1ccc(S(=O)(=O)NC[C@@H](O)C[C@@H](Cc2ccccc2)C(=O)N[C@H]2c3ccccc3C[C@H]2O)cc1 [Compound X091] | – | – | – | – | – | – | 8.25 | -3.4 | -1.2 | -10.4 | 0.6 | 1.5 | 26.9
CC(C)C(=O)Nc1ccc(S(=O)(=O)NC[C@@H](O)C[C@@H](Cc2ccccc2)C(=O)N[C@H]2c3ccccc3C[C@H]2O)cc1 [Compound X092] | – | – | – | – | – | – | 4.6 | 5.3 | 5.1 | -7.5 | 1 | 6.9 | 16.7
O=C(Nc1ccc(S(=O)(=O)NC[C@@H](O)C[C@@H](Cc2ccccc2)C(=O)N[C@H]2c3ccccc3C[C@H]2O)cc1)C1CC1 [Compound X093] | – | – | – | – | – | – | 15.05 | 6.4 | -0.3 | -4.2 | -2.4 | 23 | 34.3
O=C(O)c1ccc(S(=O)(=O)NC[C@@H](O)C[C@@H](Cc2ccccc2)C(=O)N[C@H]2c3ccccc3C[C@H]2O)cc1 [Compound X094] | – | – | – | – | – | – | 13.1 | 6.4 | -1.8 | 0.2 | 7.4 | 6.4 | 26
CNC(=O)c1ccc(S(=O)(=O)NC[C@@H](O)C[C@@H](Cc2ccccc2)C(=O)N[C@H]2c3ccccc3C[C@H]2O)cc1 [Compound X095] | – | – | – | – | – | – | 34.25 | 6.3 | -1.6 | -1 | 13.8 | 22.1 | 69.5
CCN(CC)C(=O)c1ccc(S(=O)(=O)NC[C@@H](O)C[C@@H](Cc2ccccc2)C(=O)N[C@H]2c3ccccc3C[C@H]2O)cc1 [Compound X096] | – | – | – | – | – | – | 15.3 | 0.3 | 3.1 | -1.2 | 2.5 | 5.9 | 31.8
O=C(NC1CCCC1)c1ccc(S(=O)(=O)NC[C@@H](O)C[C@@H](Cc2ccccc2)C(=O)N[C@H]2c3ccccc3C[C@H]2O)cc1 [Compound X097] | – | – | – | – | – | – | 15.95 | 3.9 | 0.5 | 0.1 | 15.2 | 19.6 | 31.8
